Data reported in patent US20240316000A1, “METHODS OF TREATMENT” (DIFFUSION PHARMACEUTICALS LLC, priority 2021, published 2024).

Key:
[1] = tested on: permanent (24-hour) focal ischemia; conditions: dosages tested 0.023 to 4.580 mg/kg; cited from earlier work
[2] = tested on: patients with peripheral artery disease; conditions: 0.25 mg/kg to 2.0 mg/kg tested, cited from earlier work
[3] = Stability of TSC versus pH; assay type: physicochemical
[4] = Population pharmacokinetics of TSC in plasma (LC-MS/MS, two-compartment model); assay type: in vivo, human; parameters: V2 / V1: unit not given here
Procedure: Prior to and following study drug administration, PK samples are obtained at the below intervals: • Pre-dose (within 10 minutes prior to injection) • 1 minute post end of injection (+1 minute) • 10 minutes post end of injection (±1 minute) • 30 minutes post end of injection (±1 minute) • 1.5 hours post end of injection (±2 minutes)
Plasma is assayed for TSC using LC-MS/MS using prednisone as an internal standard. Sample pre-treatment involves a protein precipitation extraction procedure. Lower limit of quantitation is 10 ng/ml.
For 19 of the 24 subjects included in the PK analysis, TSC concentration (Cp: Concentration in Plasma.) in the 1-minute sample is smaller (often many-fold) compared to the 10-minute sample, most likely a result of sampling too soon after the dose is administered. As a result, all 1-minute samples are excluded from population PK analysis.
Based on previous analyses and examination of drug concentration profiles, a two-compartment model with no covariates fit the data well. To determine whether the systemic parameters should be scaled for body size, three scaling approaches are evaluated: scaling all parameters by weight, allometric scaling (clearances scaled by weight raised to the 0.75 power; distribution volumes scaled by weight), and scaling all parameters by weight raised to an estimated power. The weight normalized model is preferred statistically (evaluated by the decrease in the objective function [similar to a sum of squares]) and by graphics. […] A model is evaluated in which clearance varied as a linear function of dose: […]

healthy volunteers = assay: Transcutaneous oximetry (tcpO2) pharmacodynamic study, single IV bolus, subjects breathing 100% O2; assay type: in vivo, human; conditions: for Number (%) of Subjects with a TcpO2 increase during Period 2: TSC-treated N = 24, all doses
Procedure: This is a randomized, double-blind, placebo-controlled, pharmacokinetic, pharmacodynamics study of Trans Sodium Crocetinate (TSC) utilizing Transcutaneous Oximetry Measurement (tcpO2) in healthy volunteers breathing 100% O2. Study assessments include tcpO2 levels, SpO2, and PK.
TcpO2 sensor electrodes are applied to the left or right lower extremity, per PI discretion. Sensor electrode temperature is preset to 45° C., to allow maximum vasodilation. Risk of sensor site superficial burn is minimal given the relatively brief testing period. Four (4) sensors are applied to the following locations: • Sensor 1: Mid-dorsum of the foot • Sensor 2: 10 cm distal to the lateral femoral epicondyle • Sensor 3: 5 cm proximal to the anterior aspect of the lateral malleolus • Sensor 4: 5 cm proximal from the center of the medial malleolus
After the tcpO2 sensors have been applied and tested, subjects are placed on O2 via a simple facemask at 6 L/minute, and remain on O2 for 70 minutes prior to study drug administration. The first 10 minutes allow for equilibration of O2 levels, and the subsequent 60 minutes serve as the baseline period. TcpO2 values and SpO2 are recorded every 5 minutes during the above periods. Baseline vital signs are measured within 10 minutes prior to study drug dosing.
At the end of the 70-minute equilibration/baseline period, subjects continue on O2 and receive a single IV bolus injection of TSC at a dose of 0.5, 1.0, 1.5, 2.0 or 2.5 mg/kg, or placebo. After study drug administration, subjects are evaluated for 60 minutes, with tcpO2 values and SpO2 recorded every 5 minutes. In addition to assessment of tcpO2 every 5 minutes, continuous tcpO2 measurements are provided by the TCOM machine in graphical format.
The primary analysis is based on the change over time in the tcpO2 measurements following a single administration of TSC in subjects breathing 100% O2. The time-matched changes from Period 1 (60 minute run-in on 100% O2) to Period 2 (60 minute post-drug administration on 100% O2) serve as the dependent variable in the repeated measures analysis. The 60 minute run-in on 100% O2 is intended to account for the intra-subject variability over time and the time-match differences represent the least biased estimate of the effect of the study drug.
The overall pooled median values across the four TcpO2 sensors are calculated using the median value from each sensor during the same interval. To compare the time-matched changes in TcpO2, a 2-factor (treatment and time) repeated measures (time) analysis of variance (ANOVA) model is used. Contrast statements within the model facilitate comparisons between individual dose arms and placebo over time. Intra-subject changes (Period 2 minus Period 1 in 5-minute intervals) serve as the dependent variable in the model. TcpO2 baseline measures during the 60-minute Period 1 are adjusted for intra-subject variability over time. Time-matched differences between values obtained during Period 1 and Period 2 represent the least biased estimate of the effect of the study drug versus placebo.
Therefore, a supplementary pharmacodynamic analysis on the intra-subject slopes from each period and sensor is performed. For Period 1, on an intra-subject basis, the median value from each of the 12 intervals is used to construct the slope using orthogonal spacing with respect to time. For Period 2, the slope is constructed using the median value from each of the 13 intervals—of note, Period 2 observations include 1- and 2-minute values—in addition to the 5-minute measurements for comparison to the 12 corresponding intervals of Period 1. An additional set of analyses are conducted using the Period 2 intra-subject slopes as the dependent variable. The active dose groups are pooled and the least square means are compared to placebo. This procedure is repeated iteratively, each time removing the next lowest dose group to determine the separation of each cohort's least square means relative to placebo.

[5] = tested on: healthy volunteers exercising at altitude; assay: Safety assessment in the altitude study; assay type: in vivo, human; conditions: all doses tested; no serious adverse events reported
Description: Adverse Events (AE), and Serious Adverse Events (SAE) will be reported per protocols. Laboratory values (complete blood count [CBC], basic metabolic panel [BMP] HIV, HBsAg, HCVAb), vital signs (blood pressure, heart rate, respiratory rate, temperature), and oxygen saturation (SpO2) will be monitored.

[6] = population estimate, multiplied by SCALE (WT/75)

Stability as a function of pH [3]: more stable at higher pHs
Clearance as a function of dose ([4]; IV bolus 0.5-2.5 mg/kg): clearance decreases at escalating doses
TSC plasma concentrations as a function of dose ([4]; IV bolus 0.5-2.5 mg/kg, highest at 2.5 mg/kg): increase with escalating dose
clearance ([4]; human, plasma, population estimate, single IV bolus 0.5-2.5 mg/kg, multiplied by SCALE (WT/75) and FCTR 1-0.53677 · (DOSE/1.5)): 137 mL/min
Distribution Clearance [4, 6]: 161.176 · SCALE L/day
V1 [4, 6]: 4.277 · SCALE
V2 [4, 6]: 46.61 · SCALE
SMILES: CC(/C=C/C=C(\C)C(=O)[O-])=C\C=C\C=C(C)\C=C\C=C(/C)C(=O)O.[Na+] [TSC, trans sodium crocetinate]
Dosage of maximal protective effect on cerebral infarct volume [1]: 0.092 mg/kg
Dose with greatest increase in claudication onset time [2]: 0.25 mg/kg
Dosing arm with peak increase in peak walking time ([2]; after 5 days of treatment): 1.50 mg/kg
Dose giving the greatest difference in TcpO2 from placebo (healthy volunteers; 1-hour treatment period (Period 2)): 2.5 mg/kg
Peripheral oxygenation levels over time (healthy volunteers; Period 2, placebo shows time related decrease): stable or increasing peripheral oxygenation levels over time
Number (%) of Subjects with a TcpO2 increase during Period 2 (healthy volunteers; Sensor 1 (mid-dorsum of the foot), placebo 1/5 (20.0%)): 16/24 (66.7%)
Intra-subject TcpO2 slopes, Least Square Mean (healthy volunteers; Sensor 1, pooling TSC doses ≥1.0 mg/kg, placebo −0.1878, probability 0.0960): 0.3537
Intra-subject TcpO2 slopes, Least Square Mean (healthy volunteers; Sensor 1, pooling TSC doses ≥1.5 mg/kg, placebo −0.1878, probability 0.1702): 0.3027
Intra-subject TcpO2 slopes, Least Square Mean (healthy volunteers; Sensor 1, pooling TSC doses ≥2.0 mg/kg, placebo −0.1878, probability 0.1430): 0.4359
Intra-subject TcpO2 slopes, Least Square Mean (healthy volunteers; Sensor 1, pooling all TSC doses, placebo −0.1878, probability 0.0876): 0.3185
Number (%) of Subjects with a TcpO2 increase during Period 2 (healthy volunteers; Sensor 2, placebo 0/5): 4/24 (16.7%)
Intra-subject TcpO2 slopes, Least Square Mean (healthy volunteers; Sensor 2, pooling TSC doses ≥1.0 mg/kg, placebo −0.3481, probability 0.1139): 0.0656
Intra-subject TcpO2 slopes, Least Square Mean (healthy volunteers; Sensor 2, pooling TSC doses ≥1.5 mg/kg, placebo −0.3481, probability 0.1306): 0.0149
Intra-subject TcpO2 slopes, Least Square Mean (healthy volunteers; Sensor 2, pooling TSC doses ≥2.0 mg/kg, placebo −0.3481, probability 0.0959): 0.0753
Intra-subject TcpO2 slopes, Least Square Mean (healthy volunteers; Sensor 2, pooling all TSC doses, placebo −0.3481, probability 0.0796): 0.0849
Number (%) of Subjects with a TcpO2 increase during Period 2 (healthy volunteers; Sensor 3, placebo 0/5): 3/24 (12.5%)
Intra-subject TcpO2 slopes, Least Square Mean (healthy volunteers; Sensor 3, pooling TSC doses ≥1.0 mg/kg, placebo −0.6320, probability 0.0301): 0.0132
Intra-subject TcpO2 slopes, Least Square Mean (healthy volunteers; Sensor 3, pooling TSC doses ≥1.5 mg/kg, placebo −0.6320, probability 0.0572): 0.0249
Intra-subject TcpO2 slopes, Least Square Mean (healthy volunteers; Sensor 3, pooling TSC doses ≥2.0 mg/kg, placebo −0.6320, probability 0.0421): 0.0846
Intra-subject TcpO2 slopes, Least Square Mean (healthy volunteers; Sensor 3, pooling all TSC doses, placebo −0.6320, probability 0.0186): 0.0151
Number (%) of Subjects with a TcpO2 increase during Period 2 (healthy volunteers; Sensor 4, placebo 0/5): 6/24 (25.0%)
Intra-subject TcpO2 slopes, Least Square Mean (healthy volunteers; Sensor 4, pooling TSC doses ≥1.0 mg/kg, placebo −0.6389, probability 0.0213): 0.0260
Intra-subject TcpO2 slopes, Least Square Mean (healthy volunteers; Sensor 4, pooling TSC doses ≥1.5 mg/kg, placebo −0.6389, probability 0.0436): −0.0909
Intra-subject TcpO2 slopes, Least Square Mean (healthy volunteers; Sensor 4, pooling TSC doses ≥2.0 mg/kg, placebo −0.6389, probability 0.0187): 0.0297
Intra-subject TcpO2 slopes, Least Square Mean (healthy volunteers; Sensor 4, pooling all TSC doses, placebo −0.6389, probability 0.0230): −0.0198
Increase in TcpO2 levels relative to placebo (healthy volunteers; all TSC dose groups, supplemental analysis, Period 2): greater increase in TcpO2 levels than the placebo group
TCOM readings after TSC administration compared to placebo (healthy volunteers; persists up to 60 minutes, most pronounced at 2.0 and 2.5 mg/kg iv): positive trend
Safety and tolerability [5]: safe and well tolerated at all doses tested
